Source: the NIST ThermoML archive (doi:10.1021/je050399c)
Numbers after ± are expanded uncertainties.

Conditions: Fluid (supercritical or subcritical phases), Vibrating wire viscometry

N#N [nitrogen]
viscosity [mPa·s]
Conditions | 323.15 K | 348.15 K
100.1 kPa | – | 0.02 ± 8.8e-05
200.1 kPa | – | 0.02003 ± 9.1e-05
300.1 kPa | – | 0.02004 ± 8.5e-05
400.2 kPa | – | 0.02005 ± 8.4e-05
600.5 kPa | – | 0.02007 ± 8.3e-05
800.6 kPa | – | 0.02009 ± 8.3e-05
1000.9 kPa | – | 0.02011 ± 8.5e-05
1501.9 kPa | – | 0.02017 ± 8.4e-05
2001.6 kPa | – | 0.02023 ± 8.5e-05
2500.9 kPa | 0.01924 ± 8.3e-05 | –
2502 kPa | – | 0.0203 ± 8.6e-05
3000.8 kPa | 0.01932 ± 8.4e-05 | –
3002.6 kPa | – | 0.02037 ± 8.7e-05
3502.6 kPa | 0.0194 ± 8.4e-05 | –
3504.2 kPa | – | 0.02044 ± 8.7e-05
3999.6 kPa | – | 0.02051 ± 8.7e-05
4001.8 kPa | 0.01948 ± 8.5e-05 | –
4500.4 kPa | 0.01957 ± 8.6e-05 | –
4508.2 kPa | – | 0.02058 ± 8.8e-05
5002.2 kPa | 0.01965 ± 8.7e-05 | 0.02066 ± 8.9e-05
5502.8 kPa | – | 0.02074 ± 9.1e-05
5503.9 kPa | 0.01976 ± 8.7e-05 | –
6003.4 kPa | – | 0.02084 ± 9.1e-05
6003.6 kPa | 0.01983 ± 8.7e-05 | –
6501.3 kPa | – | 0.02092 ± 9.1e-05
6503.6 kPa | 0.01994 ± 9.2e-05 | –
7002.3 kPa | – | 0.02101 ± 9.2e-05
7009.3 kPa | 0.02005 ± 9.2e-05 | –
7502.5 kPa | – | 0.0211 ± 9.3e-05
7502.7 kPa | 0.02015 ± 9.2e-05 | –
8002.1 kPa | – | 0.0212 ± 9.3e-05
8003.1 kPa | 0.02027 ± 9.3e-05 | –
8501.8 kPa | – | 0.02129 ± 9.4e-05
8504.2 kPa | 0.02038 ± 9.4e-05 | –
9004 kPa | – | 0.02139 ± 9.6e-05
9006.1 kPa | 0.0205 ± 9.5e-05 | –
9498.9 kPa | – | 0.0215 ± 9.7e-05
9500.4 kPa | 0.02062 ± 9.5e-05 | –
10001 kPa | – | 0.02161 ± 9.6e-05
10007 kPa | 0.02073 ± 9.6e-05 | –
11007 kPa | 0.02098 ± 9.9e-05 | 0.02182 ± 9.7e-05
12006 kPa | 0.02124 ± 0.0001 | –
12007 kPa | – | 0.02203 ± 9.9e-05
13005 kPa | 0.02151 ± 0.0001 | –
13006 kPa | – | 0.02227 ± 0.0001
14001 kPa | – | 0.0225 ± 0.0001
14005 kPa | 0.02176 ± 0.0001 | –
15005 kPa | 0.02205 ± 0.00011 | –
15011 kPa | – | 0.02274 ± 0.0001
16001 kPa | – | 0.02299 ± 0.00011
16009 kPa | 0.02233 ± 0.00011 | –
17002 kPa | – | 0.02326 ± 0.00011
17007 kPa | 0.02262 ± 0.00011 | –
18000 kPa | 0.02292 ± 0.00011 | –
18004 kPa | – | 0.02351 ± 0.00011
19007 kPa | 0.02323 ± 0.00011 | –
19008 kPa | – | 0.02378 ± 0.00011
19999 kPa | 0.02354 ± 0.00011 | –
20006 kPa | – | 0.02404 ± 0.00011
21004 kPa | – | 0.02431 ± 0.00011
21010 kPa | 0.02383 ± 0.00011 | –
22011 kPa | 0.02417 ± 0.00012 | 0.02458 ± 0.00011
23006 kPa | – | 0.02486 ± 0.00012
23013 kPa | 0.02451 ± 0.00012 | –
24004 kPa | 0.02481 ± 0.00012 | 0.02515 ± 0.00012
25005 kPa | 0.02511 ± 0.00012 | –
26011 kPa | 0.02547 ± 0.00012 | –
27000 kPa | 0.02579 ± 0.00012 | –
28012 kPa | 0.02613 ± 0.00012 | –
29014 kPa | 0.02646 ± 0.00012 | –
30014 kPa | 0.02677 ± 0.00013 | –
31013 kPa | 0.02714 ± 0.00013 | –
31997 kPa | 0.02746 ± 0.00013 | –
33007 kPa | 0.02781 ± 0.00013 | –
34009 kPa | 0.02814 ± 0.00013 | –
35066 kPa | 0.02852 ± 0.00015 | –
